Data as given in ChEMBL document CHEMBL1124030, “Synthesis and biological activity of the four stereoisomers of 6-[4-[3-[[2-hydroxy-3-[4-[2- (cyclopropylmethoxy)ethyl]phenoxy]propyl]amino]-propionamido] phenyl]-5-methyl-4,5-dihydro-3(2H)-pyridazinone, a combined vasodilator and beta-adrenoceptor antagonist” (1988).

Assays:
Assay type in all cases: functional
[1] = tested on: Felis catus; assay: Dose required to induce 50% inhibition of isoprenaline-induced tachycardia in the ganglion blocked anesthetized cat; conditions: read-out: ID50 (the source's name)
[2] = tested on: Rattus norvegicus; assay: Dose required to produce a 50% increase in blood flow to the autoperfused hindquarters of the anesthetized normotensive rat
[3] = tested on: Rattus norvegicus; assay: Dose required to produce a fall in blood pressure of 40 mmHg in the anesthetized normotensive rat

SMILES	ED50 [1] [µmol/kg]	ED50 [2] [µmol/kg]	ED40 [3] [µM/kg]
C[C@@H]1CC(=O)NN=C1c1ccc(NC(=O)CCNC[C@H](O)COc2ccc(CCOCC3CC3)cc2)cc1	1.7	1	2.4
C[C@@H]1CC(=O)NN=C1c1ccc(NC(=O)CCNC[C@@H](O)COc2ccc(CCOCC3CC3)cc2)cc1	20.2	0.9	4.9
C[C@H]1CC(=O)NN=C1c1ccc(NC(=O)CCNC[C@H](O)COc2ccc(CCOCC3CC3)cc2)cc1	1.6	> 40	>40
C[C@H]1CC(=O)NN=C1c1ccc(NC(=O)CCNC[C@@H](O)COc2ccc(CCOCC3CC3)cc2)cc1	8.6	> 40	20
CC1CC(=O)NN=C1c1ccc(NC(=O)CCNCC(O)COc2ccc(CCOCC3CC3)cc2)cc1 (stereo not given)	1.7	1.6	2.4
